Experiments:
Assay type in all cases: cell-based, human
MEG-01 cells [1] = assay: Viability (proliferation) assay, Trypan blue exclusion, MEG-01
MEG-01 cells [2] = assay: Thrombocytopoiesis / proplatelet formation by microscopy
Procedure: Light microscopy (phase contrast) and DAPI fluorescence microscopy. High quality pictures and live imaging were obtained at Cleveland Clinic Imaging Core (Cleveland, Ohio). DAPI staining of cultured MEG-01 cells was performed with fresh cells. For live imaging (observing a single cell for a 24 hour period of time) of the thrombocytopoiesis process, MEG-01 suspension cells were made adherent by using Fibronectin (FN) coated culture dishes. FN was used, at 5 μg/cm^2 and incubated at 37° C. for 1 h, as recommended by the supplier (BD Biosciences, Bedford, Mass., USA).
Scanning electron microscopy (SEM). Cell preparation and pictures were performed at the Microscopy Core Facility (Cleveland Clinic). Cells were grown for 4 days in the presence of 10 μM DMAT and then collected by differential centrifugation. Cells were fixed in glutaraldehyde and then further processed at the Core. The clot was prepared with platelets collected from MEG-01 cultures treated with 10 μM DMAT. Human thrombin 0.5 U/ml for 15 minutes was used to activate them.

MEG-01 cells [3] = assay: Annexin V-FITC and PI apoptosis assay, MEG-01
Procedure: Flow cytometric analysis. Cells were analyzed using a FACSCalibur flow cytofluorometer (Becton-Dickinson), with CellQuestPro ver. 3.3 software. The data was further analyzed with FlowJo ver. 6.2, and WinMDI 2.8 software. Proper gating was performed to characterize each cell population (MEG-01 cells and platelets). The population that corresponds to platelets (small, granulated particles), is PI negative because thrombocytes are anucleated cells (only the viable cells were considered) and were distinguished by their capacity to become activated, undergoing shape change in response to agonist and to show phosphatidylserine (PS) exposure when activated. Platelets were further separated from the megakaryocytic cells, by differential centrifugation, considering the size difference between these cell populations (1-5 μm for platelets and 35-150 μm for megakaryocytic cell line MEG-01) and analyzed separately. Voltage and channels settings were adjusted accordingly. Analyzed values were obtained with WinMDI ver. 2.8.
Apoptosis Assays using Flow Cytometry with Annexin V-FITC and propidium iodide (PI). For induction of typical apoptosis, cells were grown in the presence of 1 μM staurosporine (Sigma-Aldrich) for 6 hours. The staurosporine treated cells were stained as follows: control 1 with PI, control 2 with Annexin V-FITC and control 3 both PI and Annexin V-FITC in order to have the brightest controls for compensation and proper collection of the flow cytometry data. Cell necrosis was induced by heat shock (65° C. for 30 minutes). The stained control, both PI and Annexin V-FITC labeled, was then used as the reference in establishing the level of apoptosis induced by the treatments. Data was collected on logarithmic modes, two-colors. Annexin V-FITC corresponds to FL1 H channel, and PI to FL3H or FL2H channels.
Annexin V-FITC and PI apoptosis assay staining protocol. Apoptosis Annexin V-FITC and PI kit from BD Biosciences, CA, USA, was used. 10^5-10^6 cells were stained with 50 μg/ml PI and with 0.5 μg/ml FITC-labeled Annexin V using the staining protocol provided by the supplier. Samples were then analyzed immediately by flow cytometry.

| SMILES | proliferation of MEG-01 cells (Trypan Blue exclusion) (MEG-01 cells [1]; 5 nM PMA, five days of treatment) | thrombocytopoiesis (MEG-01 cells [2]) | cytotoxicity (necrosis) in MEG-01 cells (MEG-01 cells [3]) | dose and time dependence of induced apoptosis and phenotype change (MEG-01 cells [3]; 24 to 96 hours) | cell number / proliferation rate of MEG-01 cells (MEG-01 cells [1]; 100 μM TBB, 4 days of treatment) |
| --- | --- | --- | --- | --- | --- |
| CCCCCCCCCCCCCC(=O)O[C@@H]1[C@@H](C)[C@@]2(O)[C@@H](C=C(CO)C[C@]3(O)C(=O)C(C)=C[C@@H]23)[C@@H]2C(C)(C)[C@]12OC(C)=O [PMA, Phorbol 12-myristate 13-acetate, reference compound] | a decrease in proliferation was observed |  |  |  |  |
| Brc1c(Br)c(Br)c2[nH]nnc2c1Br [TBB, 4,5,6,7-tetrabromobenzotriazole] |  | induced thrombocytopoiesis | without being cytotoxic | dose and time dependent | maintained a steady number of cells |

From US20090054507A1, “CONTROL OF MALIGNANT CELLS BY KINASE INHIBITION” (CLEVELAND STATE UNIVERSITY, priority 2006, published 2009)
